In patent US10245351B2, “Malleable hydrogel hybrids made of self-assembled peptides and biocompatible polymers and uses thereof” (Technology Innovation Momentum Fund (Israel) Limited …, priority 2010, dated 2019):

Test system: CHO (Chinese Hamster Ovaries) cells
Assay: Cells viability test (MTT), cells on top of hydrogel
Format: cell-based
Description: To verify the ability of the hybrid hydrogels described herein to be used in biological applications, their biocompatibility was determined using an in vitro cell culture experiment. Three types of cells were cultivated on top of the hybrid hydrogels: CHO (Chinese Hamster Ovaries), fibroblasts and chondrocytes.
CHO, fibroblasts and chondrocytes cells were grown in Dulbecco's Modified
Eagle Medium (DMEM) supplemented with 10% fetal calf serum, 100 U/ml penicillin, 100 U/ml streptomycin, and 2 mmol/liter L-glutamine (all from Beit Haemeck, Israel). Cells were maintained at 37° C. in a humidified atmosphere containing 5% CO2. Subconfluent cultures were harvested by trypsinization, counted, and diluted in specific cells' media to form a cell concentration of 10^6 cells/ml. The gels swelled overnight with 0.1 ml DMEM. The next day, DMEM was removed and […] of the CHO cells (10^5 cells) were placed on top of the hydrogel. After 1, 3 and 7 days of incubation at 37° C. the viability of the cells was determined using an MTT assay.
The cell viability was analyzed 1, 3 and 7 days post seeding. Cells seeded as monolayers with PBS were used as control. Cell viability was analyzed using an MTT assay. […]

Substance: hyaluronic acid [HA]
- viability, in words: high viability
